# Species on record: Rattus norvegicus
# Test: Open TG-GATES - Regimen: Single
# Type: toxicity, organism-based, Sprague-Dawley
# Parameters: regimen Single, gender Male, age 6 weeks
# Settings: in vivo, po, 0 mg/kg, route gavage, dose level Control; for APTT / Bas / Eos / Fbg / Hb / Ht / Lym / MCH / MCHC / MCV / Mono / Neu / PT / Plat / RBC / Ret / WBC: tissue Blood; for KIDNEY_L / KIDNEY_R / KIDNEY_TOTAL: tissue Kidney; for LIVER: tissue Liver; for ALP / ALT / AST / CRE / DBIL / GLC / IP / K / LDH / Na / PL / RALB / TBIL / TC / TG / TP / gamma-GTP: tissue Plasma
structure (smiles),measurement,setting,value
CC(C)Cc1ccc(C(C)C(=O)O)cc1 (centres undefined) [IBUPROFEN],TERMINAL_BW,3 h,204.9 g
same,APTT,3 h,21.3 s
same,Bas,3 h,0%
same,Eos,3 h,1%
same,Fbg,3 h,277 mg/dL
same,Hb,3 h,13.2 g/dL
same,Ht,3 h,38.4%
same,Lym,3 h,72.8%
same,MCH,3 h,21.5 pg
same,MCHC,3 h,34.3%
same,MCV,3 h,62.7 fL
same,Mono,3 h,2%
same,Neu,3 h,23.6%
same,PT,3 h,15.8 s
same,Plat,3 h,113 x10_4/uL
same,RBC,3 h,612.8 x10_4/ul
same,Ret,3 h,7.9%
same,WBC,3 h,79.6 x10_2/uL
same,KIDNEY_L,3 h,0.9 g
same,KIDNEY_R,3 h,1 g
same,KIDNEY_TOTAL,3 h,1.9 g
same,LIVER,3 h,9.3 g
same,ALP,3 h,1578.8 IU/L
same,ALT,3 h,42.4 IU/L
same,AST,3 h,81.8 IU/L
same,CRE,3 h,0.2 mg/dL
same,DBIL,3 h,0 mg/dL
same,GLC,3 h,183 mg/dL
same,IP,3 h,8.2 mg/dL
same,K,3 h,4 meq/L
same,LDH,3 h,274 IU/L
same,Na,3 h,142 meq/L
same,PL,3 h,130.4 mg/dL
same,RALB,3 h,3 g/dL
same,TBIL,3 h,0.018 mg/dL
same,TC,3 h,72.6 mg/dL
same,TG,3 h,51 mg/dL
same,TP,3 h,5.4 g/dL
same,gamma-GTP,3 h,1.2 IU/L
same,TERMINAL_BW,6 h,200 g
same,Bas,6 h,0%
same,Eos,6 h,0.8%
same,Fbg,6 h,288.8 mg/dL
same,Hb,6 h,13.6 g/dL
same,Ht,6 h,40%
same,Lym,6 h,82.2%
same,MCH,6 h,21.7 pg
same,MCHC,6 h,34%
same,MCV,6 h,63.8 fL
same,Mono,6 h,1.8%
same,PT,6 h,15.9 s
same,Plat,6 h,118.6 x10_4/uL
same,RBC,6 h,627 x10_4/ul
same,Ret,6 h,7.8%
same,WBC,6 h,96.9 x10_2/uL
same,KIDNEY_L,6 h,0.9 g
same,KIDNEY_R,6 h,0.9 g
same,KIDNEY_TOTAL,6 h,1.9 g
same,LIVER,6 h,8.8 g
same,ALP,6 h,1383.4 IU/L
same,ALT,6 h,39.6 IU/L
same,AST,6 h,75.4 IU/L
same,CRE,6 h,0.2 mg/dL
same,DBIL,6 h,0 mg/dL
same,GLC,6 h,178 mg/dL
same,IP,6 h,8.9 mg/dL
same,K,6 h,4.2 meq/L
same,LDH,6 h,236.2 IU/L
same,Na,6 h,140.6 meq/L
same,PL,6 h,132.2 mg/dL
same,RALB,6 h,2.9 g/dL
same,TBIL,6 h,0.028 mg/dL
same,TC,6 h,73.2 mg/dL
same,TG,6 h,69.8 mg/dL
same,TP,6 h,5.4 g/dL
same,gamma-GTP,6 h,1.2 IU/L
same,TERMINAL_BW,9 h,198.1 g
same,APTT,9 h,23.4 s
same,Bas,9 h,0%
same,Eos,9 h,0.6%
same,Fbg,9 h,287 mg/dL
same,Hb,9 h,13 g/dL
same,Ht,9 h,38.7%
same,Lym,9 h,79.6%
same,MCH,9 h,21.6 pg
same,MCHC,9 h,33.8%
same,MCV,9 h,64 fL
same,Mono,9 h,1.8%
same,Neu,9 h,17%
same,PT,9 h,15.9 s
same,Plat,9 h,125.1 x10_4/uL
same,RBC,9 h,604.6 x10_4/ul
same,Ret,9 h,7.4%
same,WBC,9 h,76.6 x10_2/uL
same,KIDNEY_L,9 h,0.9 g
same,KIDNEY_R,9 h,0.9 g
same,KIDNEY_TOTAL,9 h,1.8 g
same,LIVER,9 h,8.2 g
same,ALP,9 h,1448.2 IU/L
same,ALT,9 h,36.6 IU/L
same,AST,9 h,73.2 IU/L
same,CRE,9 h,0.2 mg/dL
same,DBIL,9 h,0.006 mg/dL
same,GLC,9 h,178 mg/dL
same,IP,9 h,9.6 mg/dL
same,K,9 h,4.1 meq/L
same,Na,9 h,141.4 meq/L
same,PL,9 h,130.4 mg/dL
same,RALB,9 h,2.9 g/dL
same,TBIL,9 h,0.026 mg/dL
same,TC,9 h,72.8 mg/dL
same,TG,9 h,54.4 mg/dL
same,TP,9 h,5.5 g/dL
same,gamma-GTP,9 h,1.2 IU/L
same,TERMINAL_BW,24 h,213.6 g
same,APTT,24 h,20.3 s
same,Bas,24 h,0%
same,Eos,24 h,1.2%
same,Fbg,24 h,306 mg/dL
same,Hb,24 h,13.1 g/dL
same,Ht,24 h,38.6%
same,Lym,24 h,79.8%
same,MCH,24 h,21.4 pg
same,MCHC,24 h,33.8%
same,MCV,24 h,63.5 fL
same,Mono,24 h,3.2%
same,Neu,24 h,15.2%
same,PT,24 h,16.5 s
same,Plat,24 h,124.1 x10_4/uL
same,RBC,24 h,609.8 x10_4/ul
same,Ret,24 h,7.4%
same,WBC,24 h,117.7 x10_2/uL
same,KIDNEY_L,24 h,0.9 g
same,KIDNEY_R,24 h,0.9 g
same,KIDNEY_TOTAL,24 h,1.8 g
same,LIVER,24 h,10.1 g
same,ALP,24 h,1790.4 IU/L
same,ALT,24 h,47.2 IU/L
same,AST,24 h,77.2 IU/L
same,CRE,24 h,0.2 mg/dL
same,DBIL,24 h,0 mg/dL
same,GLC,24 h,198.8 mg/dL
same,IP,24 h,7.3 mg/dL
same,K,24 h,4.5 meq/L
same,LDH,24 h,235.4 IU/L
same,Na,24 h,141.6 meq/L
same,PL,24 h,145.8 mg/dL
same,RALB,24 h,3.1 g/dL
same,TBIL,24 h,0 mg/dL

# — ChEMBL document CHEMBL3885861, “Open TG-GATES”
